Key:
Test in all cases: KINOMEscan competition binding
[1] = target: FER (Homo sapiens, UniProt P16591); settings: read-out: %Inh FER
[2] = target: CDK4-cyclinD3 (Homo sapiens, UniProt P11802); settings: read-out: %Inh CDK4-cyclinD3
[3] = target: T1, DRAK2 (Homo sapiens, UniProt O94768); settings: read-out: %Inh DRAK2
T1 sequence (O94768 1-372): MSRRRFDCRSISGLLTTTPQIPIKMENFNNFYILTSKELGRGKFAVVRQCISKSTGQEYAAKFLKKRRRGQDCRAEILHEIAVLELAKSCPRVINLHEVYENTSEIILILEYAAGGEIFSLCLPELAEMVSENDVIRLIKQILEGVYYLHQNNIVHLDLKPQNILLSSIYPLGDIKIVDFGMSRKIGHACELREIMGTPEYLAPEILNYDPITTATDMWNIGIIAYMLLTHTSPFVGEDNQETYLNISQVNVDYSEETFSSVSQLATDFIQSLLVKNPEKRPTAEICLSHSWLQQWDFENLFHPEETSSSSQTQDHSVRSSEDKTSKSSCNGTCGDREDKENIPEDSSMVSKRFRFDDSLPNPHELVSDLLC

[4] = target: FGR (Homo sapiens, UniProt P09769); settings: read-out: %Inh FGR
[5] = target: T2, CDKL5 (Homo sapiens, UniProt O76039); settings: read-out: %Inh CDKL5
T2 sequence (O76039 1-960): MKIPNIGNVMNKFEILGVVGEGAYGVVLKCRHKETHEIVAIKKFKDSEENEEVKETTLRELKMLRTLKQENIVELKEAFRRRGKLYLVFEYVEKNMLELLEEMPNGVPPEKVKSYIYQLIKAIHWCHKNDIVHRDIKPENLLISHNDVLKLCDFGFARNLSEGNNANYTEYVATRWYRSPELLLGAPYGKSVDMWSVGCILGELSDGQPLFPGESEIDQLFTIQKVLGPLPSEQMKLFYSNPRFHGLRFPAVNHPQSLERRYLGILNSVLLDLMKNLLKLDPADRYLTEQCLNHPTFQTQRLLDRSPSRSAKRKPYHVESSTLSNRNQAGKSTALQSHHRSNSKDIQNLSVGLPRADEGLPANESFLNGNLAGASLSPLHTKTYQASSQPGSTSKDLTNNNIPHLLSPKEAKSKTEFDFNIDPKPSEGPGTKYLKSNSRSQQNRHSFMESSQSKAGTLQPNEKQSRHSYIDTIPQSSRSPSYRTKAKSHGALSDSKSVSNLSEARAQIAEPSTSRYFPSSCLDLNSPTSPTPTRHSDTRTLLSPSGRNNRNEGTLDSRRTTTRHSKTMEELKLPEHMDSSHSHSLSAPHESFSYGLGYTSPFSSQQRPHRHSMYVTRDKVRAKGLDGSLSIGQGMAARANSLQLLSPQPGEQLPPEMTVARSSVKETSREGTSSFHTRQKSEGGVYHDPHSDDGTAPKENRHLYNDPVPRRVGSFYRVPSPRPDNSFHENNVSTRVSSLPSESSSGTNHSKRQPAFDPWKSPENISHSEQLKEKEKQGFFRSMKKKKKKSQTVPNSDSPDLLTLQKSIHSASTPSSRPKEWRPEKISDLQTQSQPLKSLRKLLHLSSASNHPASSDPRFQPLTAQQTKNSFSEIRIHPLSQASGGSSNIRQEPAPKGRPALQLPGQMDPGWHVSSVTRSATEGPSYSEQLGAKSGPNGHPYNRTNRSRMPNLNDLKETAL

[6] = target: AKT1 (Homo sapiens, UniProt P31749); settings: read-out: %Inh AKT1
[7] = target: CSNK1G3 (Homo sapiens, UniProt Q9Y6M4); settings: read-out: %Inh CSNK1G3
[8] = target: T3, IKK-epsilon (Homo sapiens, UniProt Q14164); settings: read-out: %Inh IKK-epsilon
T3 sequence (Q14164 1-716): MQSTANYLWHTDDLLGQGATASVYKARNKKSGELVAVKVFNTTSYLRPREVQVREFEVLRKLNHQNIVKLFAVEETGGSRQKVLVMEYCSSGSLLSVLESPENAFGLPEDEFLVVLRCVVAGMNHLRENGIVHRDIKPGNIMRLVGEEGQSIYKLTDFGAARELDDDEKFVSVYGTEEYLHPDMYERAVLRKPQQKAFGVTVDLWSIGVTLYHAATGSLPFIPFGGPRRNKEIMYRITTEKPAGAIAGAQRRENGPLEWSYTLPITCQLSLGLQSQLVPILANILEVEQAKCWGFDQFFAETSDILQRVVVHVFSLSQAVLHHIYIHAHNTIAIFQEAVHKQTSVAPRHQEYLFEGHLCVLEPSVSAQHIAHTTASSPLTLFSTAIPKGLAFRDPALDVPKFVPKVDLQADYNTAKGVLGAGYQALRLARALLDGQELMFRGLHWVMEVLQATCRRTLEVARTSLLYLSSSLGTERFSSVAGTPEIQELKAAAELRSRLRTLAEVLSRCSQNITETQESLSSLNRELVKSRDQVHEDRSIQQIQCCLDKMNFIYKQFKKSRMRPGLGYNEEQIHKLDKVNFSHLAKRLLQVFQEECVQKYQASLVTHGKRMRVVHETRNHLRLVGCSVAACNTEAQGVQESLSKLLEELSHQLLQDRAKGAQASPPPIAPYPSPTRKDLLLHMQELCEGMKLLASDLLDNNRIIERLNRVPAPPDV

AKT1, sequence (P31749 whole entry): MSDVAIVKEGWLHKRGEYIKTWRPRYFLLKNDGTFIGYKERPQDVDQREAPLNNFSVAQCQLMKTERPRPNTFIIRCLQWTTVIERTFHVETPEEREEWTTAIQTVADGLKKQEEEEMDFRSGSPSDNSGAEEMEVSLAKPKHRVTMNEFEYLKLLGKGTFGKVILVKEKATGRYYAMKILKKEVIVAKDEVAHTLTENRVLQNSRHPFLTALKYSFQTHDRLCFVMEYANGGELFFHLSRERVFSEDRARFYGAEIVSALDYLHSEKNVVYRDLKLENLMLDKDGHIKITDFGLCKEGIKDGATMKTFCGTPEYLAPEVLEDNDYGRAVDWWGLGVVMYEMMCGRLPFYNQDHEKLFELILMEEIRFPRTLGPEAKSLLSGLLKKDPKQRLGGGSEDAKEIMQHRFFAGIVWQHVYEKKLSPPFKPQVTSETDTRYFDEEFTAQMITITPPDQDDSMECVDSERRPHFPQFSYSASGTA
FGR, sequence (P09769 whole entry): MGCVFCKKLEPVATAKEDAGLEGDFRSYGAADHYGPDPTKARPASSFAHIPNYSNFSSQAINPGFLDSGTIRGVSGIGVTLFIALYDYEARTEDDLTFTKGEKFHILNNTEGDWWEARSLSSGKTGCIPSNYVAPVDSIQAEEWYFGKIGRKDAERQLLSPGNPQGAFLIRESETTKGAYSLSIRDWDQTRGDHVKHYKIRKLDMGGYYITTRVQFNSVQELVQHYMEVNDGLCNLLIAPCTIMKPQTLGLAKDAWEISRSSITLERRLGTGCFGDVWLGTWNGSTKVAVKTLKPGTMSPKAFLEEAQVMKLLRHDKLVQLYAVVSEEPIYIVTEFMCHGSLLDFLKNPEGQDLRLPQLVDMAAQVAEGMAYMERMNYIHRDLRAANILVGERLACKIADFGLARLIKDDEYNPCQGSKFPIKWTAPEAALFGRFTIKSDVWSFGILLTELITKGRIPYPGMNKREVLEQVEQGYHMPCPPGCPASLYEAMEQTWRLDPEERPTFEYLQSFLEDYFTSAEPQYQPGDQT
CDK4-cyclinD3, sequence (P11802 whole entry): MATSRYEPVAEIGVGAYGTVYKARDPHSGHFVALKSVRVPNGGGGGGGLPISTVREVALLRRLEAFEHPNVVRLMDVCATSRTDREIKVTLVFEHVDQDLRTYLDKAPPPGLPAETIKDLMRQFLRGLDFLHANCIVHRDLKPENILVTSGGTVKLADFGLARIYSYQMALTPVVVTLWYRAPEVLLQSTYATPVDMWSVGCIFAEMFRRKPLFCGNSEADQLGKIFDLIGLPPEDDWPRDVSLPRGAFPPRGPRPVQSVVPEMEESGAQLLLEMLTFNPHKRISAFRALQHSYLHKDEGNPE
CDK4-cyclinD3, sequence (P30281 whole entry partner): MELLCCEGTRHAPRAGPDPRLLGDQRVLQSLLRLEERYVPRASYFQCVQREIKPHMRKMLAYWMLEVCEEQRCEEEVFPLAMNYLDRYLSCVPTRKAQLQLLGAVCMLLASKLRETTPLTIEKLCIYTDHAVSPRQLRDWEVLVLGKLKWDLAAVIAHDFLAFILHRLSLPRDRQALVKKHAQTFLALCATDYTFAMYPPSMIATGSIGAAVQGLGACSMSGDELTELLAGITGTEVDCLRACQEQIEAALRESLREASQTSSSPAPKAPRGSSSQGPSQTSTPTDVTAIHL
FER, sequence (P16591 whole entry): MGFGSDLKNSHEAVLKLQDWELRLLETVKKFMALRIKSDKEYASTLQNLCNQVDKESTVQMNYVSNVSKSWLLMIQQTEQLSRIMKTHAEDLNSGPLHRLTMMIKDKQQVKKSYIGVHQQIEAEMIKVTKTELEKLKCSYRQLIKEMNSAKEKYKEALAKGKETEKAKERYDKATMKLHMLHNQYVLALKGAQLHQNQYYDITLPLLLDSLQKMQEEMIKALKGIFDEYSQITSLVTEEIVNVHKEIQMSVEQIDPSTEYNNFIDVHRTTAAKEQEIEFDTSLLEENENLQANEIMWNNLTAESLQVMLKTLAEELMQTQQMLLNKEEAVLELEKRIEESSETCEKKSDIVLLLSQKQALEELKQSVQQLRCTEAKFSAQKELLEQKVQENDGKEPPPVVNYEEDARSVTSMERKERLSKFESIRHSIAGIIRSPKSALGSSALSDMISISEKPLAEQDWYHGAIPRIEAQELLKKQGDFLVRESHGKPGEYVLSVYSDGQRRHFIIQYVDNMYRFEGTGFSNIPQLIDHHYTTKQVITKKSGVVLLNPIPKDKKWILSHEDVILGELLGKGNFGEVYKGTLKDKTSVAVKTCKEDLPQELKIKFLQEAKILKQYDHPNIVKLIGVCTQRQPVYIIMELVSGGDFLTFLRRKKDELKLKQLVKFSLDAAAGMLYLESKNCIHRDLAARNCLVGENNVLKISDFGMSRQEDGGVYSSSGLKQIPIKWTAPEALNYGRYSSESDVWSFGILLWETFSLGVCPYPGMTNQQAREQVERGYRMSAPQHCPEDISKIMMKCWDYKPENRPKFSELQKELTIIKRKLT
CSNK1G3, sequence (Q9Y6M4 whole entry): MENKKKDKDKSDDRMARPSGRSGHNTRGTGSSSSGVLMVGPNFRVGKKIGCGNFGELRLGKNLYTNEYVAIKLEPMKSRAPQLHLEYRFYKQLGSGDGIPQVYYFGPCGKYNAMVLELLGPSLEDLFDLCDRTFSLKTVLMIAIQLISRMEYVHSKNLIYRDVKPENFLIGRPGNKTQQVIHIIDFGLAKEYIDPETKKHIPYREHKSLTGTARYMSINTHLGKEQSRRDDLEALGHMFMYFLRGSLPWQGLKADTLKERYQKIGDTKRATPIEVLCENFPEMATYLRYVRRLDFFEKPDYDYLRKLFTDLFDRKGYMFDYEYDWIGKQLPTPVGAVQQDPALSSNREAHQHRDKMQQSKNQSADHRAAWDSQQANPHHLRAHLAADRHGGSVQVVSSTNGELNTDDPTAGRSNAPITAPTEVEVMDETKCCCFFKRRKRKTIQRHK

SMILES	inhibition at 1 µM [1] [%]	inhibition at 1 µM [2] [%]	inhibition at 1 µM [3] [%]	inhibition at 1 µM [4] [%]	inhibition at 1 µM [5] [%]	inhibition at 1 µM [6] [%]	inhibition at 1 µM [7] [%]	inhibition at 1 µM [8] [%]
Cn1cc(-c2cnc(N)c3c(-c4ccc5c(c4)CCN5C(=O)Cc4ccccc4)csc23)cn1 [UNC10225012A]	10	0	9	75	0	14	22	59
CS(=O)(=O)Cc1ccc(Nc2nccc(-c3c(-c4cccc(NC(=O)C5CCCCC5)c4)nn4ncccc34)n2)cc1 [UNC10225159A]	8	18	0	27	33	23	4	32
Cc1ccc(NC(=O)Nc2cccc(C(F)(F)F)c2)cc1 [UNC10225187A]	0	0	0	0	0	12	0	0
COc1cccc(OC)c1C(=O)Nc1cccc(-c2nn3ccccc3c2-c2ccnc(Nc3cccc(F)c3)n2)c1 [UNC10225310A]	24	7	12	23	0	4	3	4
O=c1cc(N2CCOCC2)nc2n(Cc3cccc(Cl)c3Cl)c(C3CC3)nn12 [UNC10225469A]	3	0	9	9	0	12	23	0

Reference: PMC5540273, “Progress towards a public chemogenomic set for protein kinases and a call for contributions” (PLoS ONE, 2017)
